Results published in US8420823B2, “Long-chain fatty acyl elongase inhibitor comprising arylsulfonyl derivative as active ingredient” (MSD K.K., priority 2008, dated 2013).
Counter-ions that a name gives are not always drawn.

These molecules were tested against T1, human LCE (Homo sapiens, UniProt Q9H5J4) (assay: LCE enzyme activity-inhibitory test). Details: [14C]-malonyl CoA / palmitoyl CoA substrate, 37° C., 90 minutes.
T1 sequence (Q9H5J4 1-265): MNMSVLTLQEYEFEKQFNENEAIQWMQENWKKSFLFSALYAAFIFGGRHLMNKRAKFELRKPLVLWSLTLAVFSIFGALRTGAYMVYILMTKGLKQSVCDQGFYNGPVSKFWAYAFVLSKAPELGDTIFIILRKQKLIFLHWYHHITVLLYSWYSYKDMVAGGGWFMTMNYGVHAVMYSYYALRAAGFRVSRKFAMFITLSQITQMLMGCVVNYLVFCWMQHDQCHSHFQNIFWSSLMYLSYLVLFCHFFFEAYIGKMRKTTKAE
Type: biochemical
Method: Pharmacological Test Example 1 (LCE Enzyme Activity-inhibitory Test)
A test compound was dissolved in dimethyl sulfoxide (DMSO to be 10 mM), and then diluted with DMSO to prepare a 1000-fold concentrated solution of the test concentration. An improved Moon et al's method (J. Biol. Chem., Vol. 276, pp. 45358-45366, 2001) was employed for the LCE enzyme activity-inhibitor test. Concretely, the diluted compound was applied to a 96-well assay plate (Corning, 96-well assay block) in an amount of 1.0 μL/well; 50 μL of a phosphate buffer solution (100 mM potassium phosphate buffer, pH 6.5), and 25 μL of a substrate solution (100 mM potassium phosphate buffer (pH 6.5), 4.0 μM rotenone, 80 μM fatty acid-free bovine serum albumin, 160 μM palmitoyl CoA, 80 μM malonyl CoA, 3.5 μM [^14C]-malonyl CoA (1.92 GBq/mmol, by Amersham)) were added to each well; 25 μL of an enzyme solution (100 mM potassium phosphate buffer (pH 6.5), 100 μg/mL human LCE) was added thereto; the top of the plate was airtightly sealed up; and this was incubated with gently shaking and stirring at 37° C. for 90 minutes. Next, 100 μL of 5 M hydrochloric acid was added to each well, and the assay plate was stirred at room temperature for 5 minutes to stop the enzyme reaction with hydrolyzing the acyl CoA. Next, the enzyme reaction solution in each well was adsorbed by each well of a 96-well GF/C filter plate (Perkin Elmer Unifilter 96 GF/C); the individual wells were washed with water to remove the non-adsorbed malonyl CoA; and the GF/C filter plate was dried at 50° C. for 60 minutes. Next, 30 μL of a scintillator (Perkin Elmer Microscinti 0) was added to each well; then the top of the plate was sealed up; and the fixed [^14C] radioactivity was measured with a microplate scintillation counter (Perkin Elmer TopCount) to be the enzyme activity. The human LCE enzyme-inhibitory activity of the test compound was calculated, based on the radioactivity of the DMSO-added well with no test compound therein as a control.

| IC50 | Structure (SMILES) |
| --- | --- |
| 36 nM | CC(C)Oc1ccc(NC(=O)c2cccc(S(=O)(=O)N3CC4CCC3C4)c2)cc1 (centres unmarked) [Example 2, 3-(2-Azabicyclo[2.2.1]hept-2-ylsulfonyl)-N-(4-isopropoxyphenyl)benzamide] |
| 18 nM | CC(C)Oc1cc(NC(=O)c2cccc(S(=O)(=O)N3CCOCC3)c2)[nH]n1 [Example 63, 3-Isopropoxy-5-{[3-(morpholin-4-ylsulfonyl)benzoyl]amino}-1H-pyrazole hydrochloride] |
| 5200 nM | CC(C)c1ccc(NC(=O)c2cccc(S(=O)(=O)Nc3ccccc3)c2)cc1 [Example 39, 3-(Anilinosulfonyl)-N-(4-isopropylphenyl)benzamide] |
| 180 nM | CCOc1ccc(S(=O)(=O)N2CCCCC2)cc1C(=O)Nc1ccc(OC(C)C)cc1 [Example 152, 2-Ethoxy-N-(4-isopropoxyphenyl)-5-(piperidin-1-ylsulfonyl)benzamide] |
| 5.9 nM | CC(C)Oc1cc(NC(=O)c2cccc(S(=O)(=O)N3CCCC(CO)C3)c2)[nH]n1 (centres unmarked) [Example 65, 5-[(3-{[3-(hydroxymethyl)piperidin-1-yl]sulfonyl}benzoyl)amino]-3-isopropoxy-1H-pyrazole hydrochloride] |
| 310 nM | O=C(Nc1cc(C2CC2)n[nH]1)c1cccc(S(=O)(=O)N2CCCC2)c1 [Example 115, N-(3-cyclopropyl-1H-pyrazol-5-yl)-3-(pyrrolidin-1-ylsulfonyl)benzamide] |
| 690 nM | CC(C)c1ccc(NC(=O)c2cccc(S(=O)(=O)c3ccc(F)cc3)c2)cc1 [Example 137, 3-[(4-fluorophenyl)sulfonyl]-N-(4-isopropylphenyl)benzamide] |
| 8000 nM | COC[C@H]1CCCN1S(=O)(=O)c1cccc(C(=O)Nc2ccc(C(C)C)cc2)c1 [Example 40, N-(4-Isopropylphenyl)-3-{[(2R)-2-(methoxymethyl)pyrrolidin-1-yl]sulfonyl}benzamide] |
| 190 nM | COc1cccnc1NC(=O)c1cccc(S(=O)(=O)C2CCCCC2)c1 [Example 147, 3-(Cyclohexylsulfonyl)-N-(3-methoxypyridin-2-yl)benzamide] |
| 1400 nM | CC(C)c1ccc(NC(=O)c2cccc(S(=O)(=O)c3ccccc3)n2)cc1 [Example 157, N-(4-isopropylphenyl)-6-(phenylsulfonyl)pyridine-2-carboxamide] |
| 39 nM | CC(C)Oc1ccc(NC(=O)c2cccc(S(=O)(=O)N3CCCCC3)c2)cn1 [Example 100, N-(6-isopropoxypyridin-3-yl)-3-(piperidin-1-ylsulfonyl)benzamide] |
| 30 nM | CC(C)Oc1ccc(NC(=O)c2cccc(S(=O)(=O)N3CCCC(c4nc5ccccc5[nH]4)C3)c2)cc1 (centres unmarked) [Example 5, 3-{[3-(1H-benzimidazol-2-yl)piperidin-1-yl]sulfonyl}-N-(4-isopropoxyphenyl)benzamide] |
| 1300 nM | CC(O)c1ccc(NC(=O)c2cccc(S(=O)(=O)N3CCCCC3)c2)cc1 (centres unmarked) [Example 93, N-[4-(1-hydroxyethyl)phenyl]-3-(piperidin-1-ylsulfonyl)benzamide] |
| 9500 nM | COc1cc(S(=O)(=O)c2ccccc2)cnc1NC(=O)c1cccc(S(=O)(=O)N2CCCC2)c1 [Example 112, N-[3-methoxy-5-(phenylsulfonyl)pyridin-2-yl]-3-(pyrrolidin-1-ylsulfonyl)benzamide] |
| 760 nM | CC(C)Oc1ccc(NC(=O)c2cccc(S(=O)(=O)N3C[C@@H]4C[C@H]3CO4)c2)cc1 [Example 10, N-(4-isopropoxyphenyl)-3-[(1S,4S)-2-oxa-5-azabicyclo[2.2.1]hept-5-ylsulfonyl]benzamide] |
| 340 nM | CC(C)Oc1ccc(NC(=O)c2cccc(S(=O)(=O)N3CCC(F)(F)CC3)c2)cc1 [Example 17, 3-[(4,4-Difluoropiperidin-1-yl)sulfonyl]-N-(4-isopropoxyphenyl)benzamide] |

| IC50 | Structure (SMILES) |
| --- | --- |
| 830 nM | COc1cccnc1NC(=O)c1cccc(S(=O)(=O)N2CCCC(C(N)=O)C2)c1 (centres unmarked) [Example 57, 1-[(3-{[(3-methoxypyridin-2-yl)amino]carbonyl}phenyl)sulfonyl]piperidine-3-carboxamide] |
| 31 nM | CC(C)Oc1ccc(NC(=O)c2cccc(S(=O)(=O)N3CCCCC3)c2)cc1 [Example 91, N-(4-isopropoxyphenyl)-3-(piperidin-1-ylsulfonyl)benzamide] |
| 160 nM | CC(C)Oc1ccc(NC(=O)c2cccc(S(=O)(=O)N3CCCC(C(N)=O)C3)c2)nc1 (centres unmarked) [Example 58, 1-[(3-{[(5-Isopropoxypyridin-2-yl)amino]carbonyl}phenyl)sulfonyl]piperidine-3-carboxamide] |
| 160 nM | CC(C)c1ccc(NC(=O)c2cccc(S(=O)(=O)c3ccccc3)c2)cc1 [Example 136, N-(4-isopropylphenyl)-3-(phenylsulfonyl)benzamide] |
| 170 nM | CC(C)c1ccc(NC(=O)c2cccc(S(=O)(=O)N3CCCC3)c2)cc1 [Example 28, N-(4-isopropylphenyl)-3-(pyrrolidin-1-ylsulfonyl)benzamide] |
| 6000 nM | O=C(NC1CCc2ccccc21)c1cccc(S(=O)(=O)N2CCCCC2)c1 (centres unmarked) [Example 85, N-(2,3-dihydro-1H-inden-1-yl)-3-(piperidin-1-ylsulfonyl)benzamide] |
| 81 nM | CC(C)c1ccc(NC(=O)c2cccc(S(=O)(=O)N3CCC[C@@H](O)C3)c2)cc1 [Example 36, 3-{[(3R)-3-hydroxypiperidin-1-yl]sulfonyl}-N-(4-isopropylphenyl)benzamide] |
| 100 nM | CC(C)c1ccc(NC(=O)c2cccc(S(=O)(=O)N3CCCCC3C)c2)cc1 (centres unmarked) [Example 30, N-(4-isopropylphenyl)-3-[(2-methylpiperidin-1-yl)sulfonyl]benzamide] |
| 5100 nM | COc1ccccc1NC(=O)c1cccc(S(=O)(=O)N2CCC[C@@H](O)C2)c1 [Example 41, 3-{[(3R)-3-hydroxypiperidin-1-yl]sulfonyl}-N-(2-methoxyphenyl)benzamide] |
| 530 nM | COc1ccccc1NC(=O)c1cccc(S(=O)(=O)N2CCCC(C(N)=O)C2)c1 (centres unmarked) [Example 43, 1-[(3-{[(2-methoxyphenyl)amino]carbonyl]phenyl)sulfonyl}piperidine-3-carboxamide] |
| 3700 nM | COc1ccc(NC(=O)c2cccc(S(=O)(=O)c3ccccc3)c2)cc1 [Example 133, N-(4-methoxyphenyl)-3-(phenylsulfonyl)benzamide] |
| 1500 nM | CC(C)Oc1ccc(NC(=O)c2cccc(S(=O)(=O)c3cnccn3)c2)cc1 [Example 141, N-(4-isopropoxyphenyl)-3-(pyrazin-2-ylsulfonyl)benzamide] |
| 210 nM | COc1cccnc1NC(=O)c1cccc(S(=O)(=O)N2CCC[C@@H]2C)c1 [Example 48, N-(3-methoxypyridin-2-yl)-3-{[(2S)-2-methylpyrrolidin-1-yl]sulfonyl}benzamide] |
| 130 nM | CC(C)Oc1ccc(NC(=O)c2cccc(S(=O)(=O)c3ncccn3)c2)cc1 [Example 139, N-(4-isopropoxyphenyl)-3-(pyrimidin-2-ylsulfonyl)benzamide] |
| 1100 nM | COc1ccc(NC(=O)c2cccc(S(=O)(=O)C3CCCCC3)c2)cc1 [Example 146, 3-(Cyclohexylsulfonyl)-N-(4-methoxyphenyl)benzamide] |
| 1000 nM | COc1ccc(NC(=O)c2cc(S(=O)(=O)N3CCCCC3)ccc2OC)cc1 [Example 149, 2-Methoxy-N-(4-methoxyphenyl)-5-(piperidin-1-ylsulfonyl)benzamide] |
